Assay results as given in patent US20100190713A1, “USE OF THE PEPTIDE THYMOSIN BETA 4 ALONE OR IN COMBINATION WITH CECROPIN A AS A THERAPEUTIC AGENT” (priority 2007, published 2010).
Where no end group is shown, it is not given here.

Experiments:
[1] = test system: hepatitis B virus (HBV) ayw strain; assay: HBV experimental assay system, HepG2-2.2.15, secreted HBV DNA by TaqMan PCR; assay type: cell-based; details: 10 micrograms per ml; HepG2-2.2.15, six days
[2] = test system: RAW 264.7 (Mouse leukaemic monocyte macrophage cell line) cells; assay: Phagocytosis assay (Fluorescein-labeled Escherichia coli, flow cytometry); assay type: cell-based; details: 10 micrograms per ml
Protocol: RAW 264.7 (Mouse leukaemic monocyte macrophage cell line) cells were obtained from ATCC and grown in RPMI 1640 medium containing 10% FBS. Cells were incubated in 12×75 mm tubes at 37° C. with test peptides—10 micrograms per ml—for 30 min prior to adding Fluorescein-labeled Escherichia coli bacteria as the agent to be ingested. After the cells were incubated for additional 60 min at 37° C. and allowed to ingest the Fluorescein-labeled Escherichia coli bacteria, cells were fixed with 1% paraformaldehyde. The samples were then analyzed by flow cytometry to determine the amount of phagocytosis as a function of brightness (the greater the phagocytic activity, the more fluorescence in the macrophage population). Data are reported as % positive and the mean fluorescence intensity (MFI) of positively stained cells.

[3] = test system: murine spleen cells; assay: Th1/Th2 cytokine profiling assay (Ovalbumin-restimulated spleen cells, CBA kit); assay type: cell-based, Balb/c mice; details: 10 micrograms per ml, 72 hours
[4] = test system: HCMV strain AD169; assay: HCMV plaque formation assay in MRC-5 cells; assay type: cell-based; details: 10 micrograms per ml, 7-10 days
From the text: Ganciclovir was used as positive control.

[5] = test system: Primary Human endothelial cells (HUVEC); assay: Endothelial cell migration assay; assay type: cell-based; details: 10 micrograms per ml, 22 hours
Protocol: Thereafter, designated concentration of testing peptides—10 micrograms per ml—was added in duplicate wells.

[6] = test system: HUVEC; assay: Endothelial tube formation assay; assay type: cell-based, human; details: 10 micrograms per ml, 20 hours
From the text: Positive control wes vehicle only.

Substance	inhibition of HBV replication as compared to the virus control infection [1]	induction of phagocytosis as compared to the virus control experiment [2]	production of IFN-γ (decreased by) [3] [%]	production of IL-2 (decreased by) [3]	production of IL-4 (induced by) [3]	production of IL-5 (decreased by) [3]	production of TNF-alpha (change) [3]	inhibition of HCMV plaque formation as compared to the virus control experiment [4] [%]	inhibition of the migration of human endothelial cells [5] [%]	inhibition of the tube formation of human endothelial cells [6] [%]
Ac-Ser-Asp-Lys-Pro-Asp-Met-Ala-Glu-Ile-Glu-Lys-Phe-Asp-Lys-Ser-Lys-Leu-Lys-Lys-Thr-Glu-Thr-Gln-Glu-Lys-Asn-Pro-Leu-Pro-Ser-Lys-Glu-Thr-Ile-Glu-Gln-Glu-Lys-Gln-Ala-Gly-Glu-Ser-OH (SDKPDMAEIEKFDKSKLKKTETQEKNPLPSKETIEQEKQAGES; printed: Ser-Asp-Lys-Pro-Asp-Met-Ala-Glu-Ile-Glu-Lys-Phe-Asp-Lys-Ser-Lys-Leu-Lys-Lys-Thr-Glu-Thr-Gln-Glu-Lys-Asn-Pro-Leu-Pro-Ser-Lys-Glu-Thr-Ile-Glu-Gln-Glu-Lys-Gln-Ala-Gly-Glu-Ser-) [Peptide 1]	no effect	45.7%	52.7	did not significantly change	31.6%	did not significantly change	did not significantly change			
Lys-Trp-Lys-Leu-Phe-Lys-Lys-Ile-Glu-Lys-Val-Gly-Gln-Asn-Ile-Arg-Asp-Gly-Ile-Ile-Lys-Ala-Gly-Pro-Ala-Val-Ala-Val-Val-Gly-Gln-Ala-Thr-Gln-Ile-Ala-Lys-NH2 (KWKLFKKIEKVGQNIRDGIIKAGPAVAVVGQATQIAK-NH2) [Peptide 2]	10.5%	did not induce phagocytosis	65.6	42.7%	did not significantly change	37.0%	did not significantly change	2.1	15	10
